Experimental data as given in PMC6504641 (Chembiochem : a European journal of chemical biology, 2018).

Biological target: BRAF (Homo sapiens, UniProt P15056)
Assay: ELISA kinase assay, phospho-MEK1 readout
Format: biochemical

Sequence of BRAF (P15056 whole entry): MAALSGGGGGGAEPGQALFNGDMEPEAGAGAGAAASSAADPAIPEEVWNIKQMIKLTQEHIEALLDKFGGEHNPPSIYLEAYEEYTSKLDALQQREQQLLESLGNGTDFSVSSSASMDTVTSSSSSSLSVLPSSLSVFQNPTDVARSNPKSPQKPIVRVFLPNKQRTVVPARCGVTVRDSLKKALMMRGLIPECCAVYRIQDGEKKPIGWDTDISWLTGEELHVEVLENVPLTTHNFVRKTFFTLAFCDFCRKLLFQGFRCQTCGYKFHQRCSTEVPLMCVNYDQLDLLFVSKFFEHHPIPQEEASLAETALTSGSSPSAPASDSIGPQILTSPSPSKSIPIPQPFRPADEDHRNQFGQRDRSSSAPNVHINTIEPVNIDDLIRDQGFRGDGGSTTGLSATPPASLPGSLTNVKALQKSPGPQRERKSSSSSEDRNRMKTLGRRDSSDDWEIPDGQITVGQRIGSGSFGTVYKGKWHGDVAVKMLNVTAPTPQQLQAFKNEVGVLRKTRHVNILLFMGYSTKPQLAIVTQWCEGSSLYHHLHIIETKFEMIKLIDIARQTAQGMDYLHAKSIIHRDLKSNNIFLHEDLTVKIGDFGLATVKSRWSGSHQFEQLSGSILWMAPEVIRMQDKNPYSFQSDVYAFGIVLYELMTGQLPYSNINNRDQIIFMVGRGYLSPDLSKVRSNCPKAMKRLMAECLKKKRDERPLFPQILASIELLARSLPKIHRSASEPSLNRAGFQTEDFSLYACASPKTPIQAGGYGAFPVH

`N#Cc1c(Oc2ccc(F)c(NC(=O)Cc3cccc(C(F)(F)F)c3)c2)ccc2nc(NC(=O)C3CC3)sc12` [TAK-632] showed an IC50 of 0.7 nM.
